Laboratory results reported in patent US12049483B2, “Selective and noncovalent inhibitors of oncogenic RAS mutants” (New York University, priority 2020, dated 2024).
Entries after “also recorded” stand apart in the source; their conditions may differ.

Experiments:
[1] = biological target: T1, NRAS(WT) (Homo sapiens, UniProt P01111); test: Yeast display binding titration, NRAS(WT); details: GTPγS and GDP bound states
T1 construct: made in house; host or cells: E. coli BL21(DE3) with pBirA
Experimental: (§1) Nucleotide exchange of RAS. Purified RAS proteins used in binding experiment and crystallization were prepared by diluting stock protein (typically containing 20-250 μM RAS) 25 times with 20 mM Tris-Cl buffer pH 7.5 containing 5 mM EDTA, 0.1 mM DTT and 1 mM final concentration of a nucleotide (GDP or GTPγS). Samples were incubated at 30° C. for 30 minutes. MgCl2 was then added to the sample at a final concentration of 20 mM and the solution was further incubated on ice for at least 5 minutes prior to use.
(§2) Monobody development. General procedures for the development of monobodies against purified protein targets have been described previously. After four rounds of phage display library selection using biotinylated KRAS(G12C) at concentrations of 100 nM, 100 nM, 50 nM and 50 nM, the genes encoding monobodies from the enriched phage pool were transferred to a yeast display vector, which was used to construct yeast-display libraries. The yeast display libraries were sorted using a Bio-Rad S3e fluorescence-activated cell sorter or a […] II cell sorter (BD Biosciences). […] Single clones were then screened for selective binding to RAS mutants. The expression of monobodies on the surface of yeast cells were detected using mouse anti-VS and anti-mouse IgG-FITC conjugate. Target binding was detected with neutravidin Dylight650. Yeast cells were analyzed using an iQue flow cytometer (Sartorius). […]

[2] = test system: KRAS mutant and control cell lines; test: Cell proliferation assay of dox-inducible monobody-expressing cell lines; format: cell-based; details: KRAS(G12C) (H358 and H23) and KRAS(G12V) (PATU8902 and H441) cell lines
Experimental: Cell proliferation assay. […] Cells were then cultured in the presence of 1 μg/mL doxycycline for the entire duration of experiment (7-8 days) and subcultured into a new 12 well or 24 well plate every 2 days. […] The mixed culture was sampled periodically and the ratio between monobody expressing cells (mVenus and GFP positive) and non-expressing cells was determined using flow cytometry analysis (FIG. 11).

[3] = biological target: T2, KRAS(G12D) (Homo sapiens, UniProt P01116, G12D); test: Yeast display binding titration, KRAS(G12D); details: GTPγS and GDP bound states
T2 construct: KRAS4B residues 1-174 containing G12C, G12V, G12D, G13D, Q61L, WT; made in house; host or cells: E. coli BL21(DE3) with pBirA
Experimental: as §1, §2

[4] = biological target: T3, KRAS(WT) (Homo sapiens, UniProt P01116); test: Yeast display binding titration, KRAS(WT); details: either nucleotide-bound form
T3 construct: KRAS4B residues 1-174 containing G12C, G12V, G12D, G13D, Q61L, WT; made in house; host or cells: E. coli BL21(DE3) with pBirA
Experimental: as §1, §2

[5] = test system: ERK activation (pERK); test: ERK activation in dox-inducible monobody-expressing cell lines; format: cell-based
Experimental: Cell signaling assay and quantification of immunoblots. Cells were lysed in RIPA buffer (50 mM Tris-Cl pH 8, 150 mM NaCl, 5 mM EDTA pH8, 0.1% SDS, 1% NP40) supplemented with protease inhibitors (Roche; 5892991001) and phosphatase inhibitors (54 mM β-glycerophosphate, 10 mM NaF, 1 mM sodium vanadate) for 15 minutes on ice, and centrifuged at 15,000 g for 15 minutes. The supernatant was collected and measured for total protein amount using BCA assay (Thermo Scientific; 23227). Lysate (7-20 μg per well) was loaded onto a pre-cast SDS gel (BioRad; 456-1096) followed by electrophoresis. The proteins were then transferred from the gel to a low fluorescence background PVDF membrane (Millipore; IPFL00010) or regular PVDF membrane (Millipore; ISEQ00010) depending on whether fluorescence or chemiluminescence detection was performed. Phospho-ERK was detected using a rabbit anti-pERK antibody (Cell Signaling; 9101S) and total ERK was detected using a rabbit anti-ERK antibody (Cell Signaling; 9102S). Monobody expression was detected using mouse anti-Flag antibody (Sigma; F3165) or anti-HA tag antibody (BioLegend; 901516). Loading control was detected with primary antibody against tubulin-alpha (Thermo Scientific, 62204) or against cytochrome oxidase (COX IV) (Li-Cor, 926-42214). The total RAS level was detected using a pan-RAS antibody (SCBT, sc-166691). The KRAS level was determined using a KRAS-specific antibody (Sigma, WH0003845M1). For fluorescence detection of immunoblots, the membranes were imaged with a Licor Odyssey Clx imager (Li-Cor Bioscience) using IRDye anti-Rabbit 800CW and anti-Mouse 680LT (Li-Cor Bioscience, 926-32211 and 926-68020, respectively) as secondary antibodies. […] Band intensities of western blot were analyzed with Image Studio Lite version 5.2 (Li-Cor Bioscience). To quantify protein abundance in the degradation experiment, the intensities of pERK, RAS, KRAS, and Flag/HA tag bands were first normalized against the loading control of the perspective blot, which were either tubulin-α, COX IV or total ERK, followed by subsequent normalization to the zero time point. […]

[6] = biological target: T4, KRAS(G13D) (Homo sapiens, UniProt P01116, G13D); test: Yeast display binding titration, KRAS(G13D); details: GTPγS and GDP bound states
T4 construct: KRAS4B residues 1-174 containing G12C, G12V, G12D, G13D, Q61L, WT; made in house; host or cells: E. coli BL21(DE3) with pBirA
Experimental: as §1, §2

T1 sequence (P01111 whole entry): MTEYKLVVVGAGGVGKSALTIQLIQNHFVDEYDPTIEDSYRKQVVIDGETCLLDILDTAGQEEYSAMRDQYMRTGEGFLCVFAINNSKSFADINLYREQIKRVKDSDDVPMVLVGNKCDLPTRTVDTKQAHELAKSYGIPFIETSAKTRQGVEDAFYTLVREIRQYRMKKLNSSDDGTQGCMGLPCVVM

## VSSVPTKLEVVAATPTSLLISWDAPAVTVFFYVITYGETGHGVGAFQAFKVPGSKSTATISGLKPGVDYTITVYARGYSKQGPYKPSPISINYRT [12VC1]
[1]
  binding: no binding; also recorded: did not detectably bind
[2]
  proliferation: potently inhibited
[3]
  binding: no binding
[4]
  binding: did not detectably bind
[5]; H358, after 24 and 48 hours, dox-induced expression or ARS1620 treatment
  ERK activation in H358 cells: effectively inhibited
[5]; KRAS(G12C) (H358 and H23) and KRAS(G12V) (PATU8902 and H441) cell lines, dox-induced expression
  ERK activation: potently inhibited
[6]
  binding: no binding
